The test system of the assay is HCT-8. The assay is described as follows: Cytotoxicity against human HCT8 cells after 72 hrs by MTT assay. It is filed as functional, cell-based. The conditions noted are these: HCT-8, 72 h.

The structures appear in SMILES notation.

By IC50 is commonly meant the concentration that gives 50% inhibition. For `CCC[C@@]1(O)C[C@H](O)c2c(O)c3c(c(O)c2[C@H]1C(=O)OC)C(=O)c1cccc(O)c1C3=O`, half-maximal inhibition (IC50) was put at 6.2 µM.

In the case of `CCCc1ccc2c(c1)C(=O)c1cc3cccc(OC)c3cc1C2=O`, the IC50 was above 70 µM.

`CCCc1ccc2c(O)c3c(c(O)c2c1)C(=O)c1cccc(O)c1C3=O` came in with an IC50 of 12.7 µM.

With `COc1cccc2c1C(=O)c1c(O)c3c(c(O)c1C2=O)C[C@@](O)(C(=O)CO)C[C@@H]3O[C@H]1C[C@H](N)[C@H](O)[C@H](C)O1` [DOXORUBICIN], the IC50 is 0.1 µM.

`CCC[C@@]1(O)CCC2=C(C1)C(=O)c1cc3cccc(OC)c3cc1C2=O` registered an IC50 above 70 µM.

Values taken from ChEMBL document CHEMBL2021875, “Anthracyclinones from Micromonospora sp” (J Nat Prod, 2012).
